These results are taken from patent publication US11447470B2, “Pyrimidinone-containing compound, preparation method thereof, pharmaceutical composition and application thereof” (YUNNAN UNIVERSITY, priority 2018, dated 2022).

What all share (assay type): cell-based
One data set concerns HIV-1IIIB. Put plainly: Syncytium inhibition experiment, C8166 cells infected with HIV-1IIIB. The note with it: Human immunodeficiency virus 1, 72 h; HIV-1IIIB (MOI=0.04) in C8166 cells, syncytium count, three days. The protocol: (§1) C8166 cells infected with HIV-1 were used for determining the anti-HIV biological activity at the cellular level. The specific method was described below.
Syncytium inhibition experiment: 100 μL of C8166 cell suspension (4×10^5/mL) was seeded into each well of 96-well cell culture plates containing 5-fold serial dilutions of the compounds, followed by addition of HIV-1IIIB diluted supernatant (MOI=0.04). Triplicate wells were set for each serial concentration. […] The cells were cultured at 37° C. in a 5% CO2 incubator for three days. The number of the syncytia was counted in five non-overlapping fields of view by using an inverted microscope (100×).

Another data set has as its system C8166 cells. Put plainly: Cytotoxicity experiment (MTT method) on C8166 cells. Here is the method:
as §1
(§2) Cytotoxicity experiment: The toxicity of the compounds on C8166 cells was determined by MTT method. In 96-well cell culture plates, the compounds were subjected to 5-fold serial dilution and 100 μL of C8166 cell suspension (4×10^5/mL) was added into each well. Triplicate wells were set for each concentration. […] The cells were incubated at 37° C. in a 5% CO2 incubator for three days, followed by the addition of MTT solution into each well, and then the cells were incubated at 37° C. for 4 hours. 10% SDS-50% DMF was added into each well and the cells were incubated at 37° C. in a 5% CO2 incubator overnight. After mixing evenly, the OD values were measured by BIO-TEK ELx800 ELISA instrument (determination wavelength: 570 nm; reference wavelength: 630 nm).
In general terms: Tetrazolium dyes change colour on reduction, which living cells bring about.

Assay in data set [1]: as above
As to conditions: human. Here is the method: as §1, §2

For orientation: EC50 means the midpoint of the concentration-response curve. Broadly, the CC50 is the concentration giving 50% cytotoxicity.

Like-named read-outs stand apart in the source and are kept apart here. Some results are limits rather than exact numbers.

Take `CCc1c(CC2CCCCC2)nc(SCc2n[nH]c(-c3ccc(Cl)c(Cl)c3)c2Cl)[nH]c1=O` [Compound I-13]: in the data set on HIV-1IIIB, the EC50 is 0.349 µM. Besides, the CC50 in the data set with C8166 cells (C8166 cells, MTT, three days, read-out: CC50) was over 200 µM. Further, the CC50 at 3 days in data set [1] (C8166 cells in vitro, read-out: CC50 values on C8166 cells) is over 200 µM.
For the molecule `COc1ccc(-c2cc(CSc3nc(CC4CCCCC4)c(C(C)C)c(=O)[nH]3)n[nH]2)cc1` [Compound I-40], the EC50 with HIV-1IIIB was 0.012 µM. Also, the CC50 with C8166 cells (human, 3 days) was over 200 µM. This molecule also showed a CC50 at 3 days in data set [1] of over 200 µM.
`CCc1c(Cc2ccccc2)nc(SCc2cc(-c3ccc(F)cc3)[nH]n2)[nH]c1=O` [Compound I-49] came in with an EC50 in the data set with HIV-1IIIB of 0.837 µM. The same molecule showed a CC50 in the data set with C8166 cells (human, 3 days) of over 200 µM. In addition, in data set [1], the CC50 at 3 days was over 200 µM.
`CCc1c(Cc2ccc3c(c2)OCO3)nc(SCc2cc(-c3ccc(F)cc3)[nH]n2)[nH]c1=O` [Compound I-50] yielded an EC50 in the data set on HIV-1IIIB of 2.97 µM. For the same molecule, in data set [1], half-maximal cytotoxicity (CC50 at 3 days) was put at 78 µM.
`CCc1c(Cc2c(Cl)cccc2Cl)nc(SCc2cc(-c3ccc(F)cc3)[nH]n2)[nH]c1=O` [Compound I-51] had an EC50 in the data set on HIV-1IIIB of 0.602 µM. This molecule also had a half-maximal cytotoxic concentration (CC50) at 3 days in data set [1] of 45.5 µM.
As to `CCc1c(Cc2cc(F)cc(F)c2)nc(SCc2cc(-c3ccc(F)cc3)[nH]n2)[nH]c1=O` [Compound I-52], it took 0.097 µM to reach a half-maximal effect with HIV-1IIIB (EC50). The same molecule registered a CC50 in the data set with C8166 cells (human, 3 days) of over 200 µM. Also, the CC50 at 3 days in data set [1] was over 200 µM.
For the molecule `CCc1c(Cc2ccccc2)nc(SCc2n[nH]c(-c3ccc(F)c(F)c3)c2Cl)[nH]c1=O` [Compound I-53], the midpoint of the response with HIV-1IIIB, the EC50, lay at 0.141 µM. In the data set on C8166 cells (human, 3 days), this molecule yielded a CC50 of over 200 µM. The CC50 at 3 days in data set [1] was over 200 µM.
In the data set with HIV-1IIIB, `O=c1cc(CC2CCCCC2)nc(SCc2n[nH]c(-c3ccc(F)c(F)c3)c2Cl)[nH]1` [Compound I-54] gave an EC50 of 3.88 µM. In data set [1], the midpoint of cytotoxicity, the CC50 at 3 days, lay at 89 µM.
`CCc1c(Cc2c(Cl)cccc2Cl)nc(SCc2n[nH]c(-c3ccc(F)c(F)c3)c2Cl)[nH]c1=O` [Compound I-55] had an EC50 in the data set on HIV-1IIIB of 0.7 µM. In the data set on C8166 cells (human, 3 days), this molecule returned a CC50 of over 200 µM. The CC50 at 3 days in data set [1] is over 200 µM.
The molecule `Cc1c(CC2CCCCC2)nc(SCc2n[nH]c(-c3ccc(F)c(F)c3)c2Cl)[nH]c1=O` [Compound I-56] displayed an EC50 in the data set with HIV-1IIIB of 0.587 µM. Further, the CC50 at 3 days in data set [1] came out at 40.3 µM.
Molecule `CCc1c(Cc2cc(F)cc(F)c2)nc(SCc2n[nH]c(-c3ccc(F)c(F)c3)c2Cl)[nH]c1=O` [Compound I-57] showed an EC50 in the data set with HIV-1IIIB of 0.08 µM. The molecule further showed a CC50 at 3 days in data set [1] of 81.1 µM.
The matching figures for `CCc1c(Cc2ccccc2)nc(SCc2cc(-c3ccc(F)c(F)c3)[nH]n2)[nH]c1=O` [Compound I-58]: 0.4 µM and 81 µM.
On the same counts, the results for `O=c1cc(CC2CCCCC2)nc(SCc2cc(-c3ccc(F)c(F)c3)[nH]n2)[nH]1` [Compound I-59] are 23.9 µM and 89.1 µM.
The matching figures for `CCc1c(Cc2c(Cl)cccc2Cl)nc(SCc2cc(-c3ccc(F)c(F)c3)[nH]n2)[nH]c1=O` [Compound I-60]: 0.733 µM and 64.9 µM.
With `CCc1c(Cc2cc(F)cc(F)c2)nc(SCc2cc(-c3ccc(F)c(F)c3)[nH]n2)[nH]c1=O` [Compound I-61], a half-maximal response in the data set with HIV-1IIIB (EC50) required 0.124 µM. Also, half-maximal cytotoxicity in data set [1] (CC50 at 3 days) was put at 46.4 µM.
In the data set on HIV-1IIIB, `CCc1c(Cc2ccc3c(c2)OCO3)nc(SCc2cc(-c3ccc(F)c(F)c3)[nH]n2)[nH]c1=O` [Compound I-62] returned an EC50 of 4.98 µM. In data set [1], this molecule registered a CC50 at 3 days of over 200 µM.
Take `CCc1c(Cc2cc(F)cc(F)c2)nc(SCc2n[nH]c(-c3ccc(F)cc3)c2Cl)[nH]c1=O` [Compound I-63]: the response with HIV-1IIIB was half-maximal at 0.063 µM (EC50). The molecule also yielded a CC50 at 3 days in data set [1] of over 200 µM.
Molecule `CCc1c(Cc2c(Cl)cccc2Cl)nc(SCc2n[nH]c(-c3ccc(F)cc3)c2Cl)[nH]c1=O` [Compound I-64] gave an EC50 in the data set on HIV-1IIIB of 0.643 µM. The molecule further yielded a CC50 at 3 days in data set [1] of over 200 µM.
On the same counts, the results for `CCc1c(Cc2ccc3c(c2)OCO3)nc(SCc2n[nH]c(-c3ccc(F)cc3)c2Cl)[nH]c1=O` [Compound I-65] are 0.37 µM and over 200 µM.
On the same counts, the results for `O=c1cc(CC2CCCCC2)nc(SCc2n[nH]c(-c3ccc(F)cc3)c2Cl)[nH]1` [Compound I-67] are 0.847 µM and over 200 µM.
On the same counts, the results for `Cc1c(CC2CCCCC2)nc(SCc2n[nH]c(-c3ccc(F)cc3)c2Cl)[nH]c1=O` [Compound I-68] are 0.111 µM and over 200 µM.
`CCc1c(Cc2cc(F)cc(F)c2)nc(SCc2n[nH]c(-c3ccccc3)c2Cl)[nH]c1=O` [Compound I-69] displayed a concentration giving a half-maximal response (EC50) in the data set with HIV-1IIIB of 0.055 µM. Also, in data set [1], the CC50 at 3 days was over 200 µM.
In the case of `CCc1c(Cc2c(Cl)cccc2Cl)nc(SCc2n[nH]c(-c3ccccc3)c2Cl)[nH]c1=O` [Compound I-70], in the data set with HIV-1IIIB, the EC50 came to 0.092 µM. In addition, in data set [1], the CC50 at 3 days was over 200 µM.
In the data set on HIV-1IIIB, `CCc1c(Cc2ccccc2)nc(SCc2n[nH]c(-c3ccccc3)c2Cl)[nH]c1=O` [Compound I-71] displayed an EC50 of 0.051 µM. In data set [1], this molecule returned a CC50 at 3 days of over 200 µM.
On the same counts, the results for `CCc1c(Cc2ccc3c(c2)OCO3)nc(SCc2n[nH]c(-c3ccccc3)c2Cl)[nH]c1=O` [Compound I-72] are 0.081 µM and over 200 µM.
